Experimental data reported in ChEMBL document CHEMBL1121510, “Resolution, absolute configuration, and antiarrhythmic properties of the enantiomers of disopyramide, 4-(diisopropylamino)-2-(2-pyridyl)-2-phenylbutyramide” (1980).

Columns and labels:
Oryctolagus cuniculus [1] = species: Oryctolagus cuniculus; assay: Antiarrhythmic activity expressed as change in effective refractory period (DeltaERP) induced in rabbit ventricle by the Enantiomeric Disopyramide Bitartrates at a concentration of 1.5x10E-5M.; type: functional, Heart
Oryctolagus cuniculus [2] = species: Oryctolagus cuniculus; assay: Antiarrhythmic activity expressed as change in effective refractory period (DeltaERP) induced in rabbit ventricle by the Enantiomeric Disopyramide Bitartrates at a concentration of 3.0x10E-6M; type: functional, Heart

SMILES | Delta ERP (Oryctolagus cuniculus [1]) [ms] | Delta ERP (Oryctolagus cuniculus [2]) [ms]
CC(C)N(CC[C@@](C(N)=O)(c1ccccc1)c1ccccn1)C(C)C [DISOPIRAMIDE] | 50.5 | 25.8
CC(C)N(CC[C@](C(N)=O)(c1ccccc1)c1ccccn1)C(C)C [(S)-DISOPYRAMIDE] | 41.2 | 21.8
